Experimental data from ChEMBL document CHEMBL4507310, “Data for DCP probe A-1211212” (2021).

Key:
[1] = target: B2 bradykinin receptor (Homo sapiens) (UniProt P30411); test: B2 (h) Eurofins-Cerep binding assay; set-up: ligand concentration 0.3 nM; conditions: filed as agonist, Compound concentration 10.0 uM
[2] = target: Cholecystokinin receptor type A (Homo sapiens) (UniProt P32238); test: CCK1 (CCKA) (h) Eurofins-Cerep binding assay; set-up: ligand concentration 0.08 nM; conditions: filed as agonist, Compound concentration 10.0 uM
[3] = target: GABA-A receptor; alpha-1/beta-2/gamma-2 (Homo sapiens) (UniProt P14867+P47870+P18507); test: GABAA1 (h) (alpha1,beta2,gamma2) Eurofins-Cerep binding assay; format: protein-complex assay; set-up: ligand concentration 15 nM; conditions: filed as agonist, Compound concentration 10.0 uM
[4] = target: Neuropeptide Y receptor type 1 (Homo sapiens) (UniProt P25929); test: Y1 (h) Eurofins-Cerep binding assay; set-up: ligand concentration 0.025 nM; conditions: filed as agonist, Compound concentration 10.0 uM
Sequence of Neuropeptide Y receptor type 1 (Homo sapiens) (P25929 whole entry): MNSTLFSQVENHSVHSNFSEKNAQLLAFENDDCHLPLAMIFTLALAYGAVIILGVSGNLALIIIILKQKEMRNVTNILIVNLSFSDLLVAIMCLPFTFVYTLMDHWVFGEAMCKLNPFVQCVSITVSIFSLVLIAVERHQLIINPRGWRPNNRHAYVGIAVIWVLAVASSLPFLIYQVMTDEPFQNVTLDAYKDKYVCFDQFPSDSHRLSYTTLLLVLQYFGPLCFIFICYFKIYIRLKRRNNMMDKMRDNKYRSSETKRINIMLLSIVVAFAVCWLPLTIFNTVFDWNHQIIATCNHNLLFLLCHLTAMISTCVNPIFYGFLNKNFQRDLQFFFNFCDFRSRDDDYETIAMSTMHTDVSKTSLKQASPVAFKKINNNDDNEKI

[5] = target: Vasopressin V1a receptor (Homo sapiens) (UniProt P37288); test: V1 a (h) Eurofins-Cerep binding assay; set-up: ligand concentration 0.3 nM; conditions: filed as agonist, Compound concentration 10.0 uM
[6] = system: Tyrosine-protein kinase ABL1 (Homo sapiens), P00519 [T315I]; conditions: Compound concentration 1000.0 nM
[7] = system: Serine/threonine-protein kinase B-raf (Homo sapiens), P15056 [V600E]; conditions: Compound concentration 1000.0 nM
[8] = target: Casein kinase II subunit alpha (Homo sapiens) (UniProt P68400); conditions: Compound concentration 1000.0 nM
Sequence of Casein kinase II subunit alpha (Homo sapiens) (P68400 whole entry, looked up): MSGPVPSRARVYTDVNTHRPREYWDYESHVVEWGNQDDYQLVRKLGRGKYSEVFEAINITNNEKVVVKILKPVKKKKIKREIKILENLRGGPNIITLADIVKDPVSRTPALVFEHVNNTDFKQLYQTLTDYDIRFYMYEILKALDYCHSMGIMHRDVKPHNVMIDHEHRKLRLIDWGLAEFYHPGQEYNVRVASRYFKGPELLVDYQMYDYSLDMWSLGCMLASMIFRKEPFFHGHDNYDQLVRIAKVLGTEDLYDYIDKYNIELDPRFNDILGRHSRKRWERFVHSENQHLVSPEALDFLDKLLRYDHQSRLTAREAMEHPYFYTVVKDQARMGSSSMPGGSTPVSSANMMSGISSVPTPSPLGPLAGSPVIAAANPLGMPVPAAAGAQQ

[9] = target: Serine/threonine-protein kinase DCLK3 (Homo sapiens) (UniProt Q9C098); conditions: Compound concentration 1000.0 nM
[10] = target: Dual specificity tyrosine-phosphorylation-regulated kinase 1B (Homo sapiens) (UniProt Q9Y463); conditions: Compound concentration 1000.0 nM
Sequence of Dual specificity tyrosine-phosphorylation-regulated kinase 1B (Homo sapiens) (Q9Y463 whole entry, looked up): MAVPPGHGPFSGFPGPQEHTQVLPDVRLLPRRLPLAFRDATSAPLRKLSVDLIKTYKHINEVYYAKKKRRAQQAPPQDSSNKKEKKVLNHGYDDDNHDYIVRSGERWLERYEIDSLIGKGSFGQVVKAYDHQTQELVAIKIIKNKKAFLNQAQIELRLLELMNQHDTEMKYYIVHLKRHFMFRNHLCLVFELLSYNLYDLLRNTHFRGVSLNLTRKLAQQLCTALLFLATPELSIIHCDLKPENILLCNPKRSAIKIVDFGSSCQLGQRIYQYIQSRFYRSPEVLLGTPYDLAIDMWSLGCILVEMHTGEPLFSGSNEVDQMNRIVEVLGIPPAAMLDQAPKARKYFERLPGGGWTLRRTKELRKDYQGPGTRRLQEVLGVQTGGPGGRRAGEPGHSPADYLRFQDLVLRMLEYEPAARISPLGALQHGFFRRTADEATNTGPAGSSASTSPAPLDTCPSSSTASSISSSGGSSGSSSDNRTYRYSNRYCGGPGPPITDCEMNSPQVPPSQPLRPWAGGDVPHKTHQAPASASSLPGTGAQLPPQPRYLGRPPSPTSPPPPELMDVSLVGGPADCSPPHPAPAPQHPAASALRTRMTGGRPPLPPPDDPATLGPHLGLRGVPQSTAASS

[11] = target: Focal adhesion kinase 1 (Homo sapiens) (UniProt Q05397); conditions: Compound concentration 1000.0 nM
Sequence of Focal adhesion kinase 1 (Homo sapiens) (Q05397 2-1052 limits assumed): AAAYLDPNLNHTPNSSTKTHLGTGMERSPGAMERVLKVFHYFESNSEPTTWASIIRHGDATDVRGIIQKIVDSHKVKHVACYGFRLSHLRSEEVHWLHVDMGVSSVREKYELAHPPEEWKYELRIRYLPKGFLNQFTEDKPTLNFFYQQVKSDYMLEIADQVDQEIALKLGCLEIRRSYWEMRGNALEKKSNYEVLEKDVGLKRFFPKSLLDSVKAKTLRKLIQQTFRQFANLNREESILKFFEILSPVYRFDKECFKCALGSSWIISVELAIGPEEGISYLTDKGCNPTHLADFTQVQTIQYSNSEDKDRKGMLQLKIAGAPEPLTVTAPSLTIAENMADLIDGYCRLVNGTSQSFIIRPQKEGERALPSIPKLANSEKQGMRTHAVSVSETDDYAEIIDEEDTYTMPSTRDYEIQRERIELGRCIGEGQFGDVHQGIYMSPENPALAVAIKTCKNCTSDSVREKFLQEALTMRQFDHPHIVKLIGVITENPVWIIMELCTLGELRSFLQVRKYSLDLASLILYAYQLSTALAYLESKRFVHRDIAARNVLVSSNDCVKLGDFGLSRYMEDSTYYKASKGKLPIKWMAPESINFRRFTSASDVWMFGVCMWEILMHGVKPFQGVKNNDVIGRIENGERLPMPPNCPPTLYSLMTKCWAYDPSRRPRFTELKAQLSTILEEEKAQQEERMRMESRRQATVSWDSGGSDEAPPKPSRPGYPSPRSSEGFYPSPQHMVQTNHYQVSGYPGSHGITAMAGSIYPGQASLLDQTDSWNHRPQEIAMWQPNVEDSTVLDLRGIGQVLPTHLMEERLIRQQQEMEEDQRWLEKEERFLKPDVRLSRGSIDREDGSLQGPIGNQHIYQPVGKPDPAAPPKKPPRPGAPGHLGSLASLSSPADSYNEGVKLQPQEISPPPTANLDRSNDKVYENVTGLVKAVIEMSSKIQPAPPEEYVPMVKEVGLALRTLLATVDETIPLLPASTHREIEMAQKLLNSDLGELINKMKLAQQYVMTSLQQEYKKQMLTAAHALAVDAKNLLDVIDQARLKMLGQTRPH

[12] = target: Fibroblast growth factor receptor 3 (Homo sapiens) (UniProt P22607); conditions: Compound concentration 1000.0 nM
[13] = system: Receptor-type tyrosine-protein kinase FLT3 (Homo sapiens), P36888 [D835V]; conditions: Compound concentration 1000.0 nM
[14] = target: Receptor-type tyrosine-protein kinase FLT3 (Homo sapiens) (UniProt P36888); conditions: Compound concentration 1000.0 nM
[15] = target: Tyrosine-protein kinase JAK2 (Homo sapiens) (UniProt O60674); conditions: Compound concentration 1000.0 nM
[16] = target: MAP/microtubule affinity-regulating kinase 4 (Homo sapiens) (UniProt Q96L34); conditions: Compound concentration 1000.0 nM
[17] = target: Dual specificity mitogen-activated protein kinase kinase 4 (Homo sapiens) (UniProt P45985); conditions: Compound concentration 1000.0 nM
Sequence of Dual specificity mitogen-activated protein kinase kinase 4 (Homo sapiens) (P45985 whole entry): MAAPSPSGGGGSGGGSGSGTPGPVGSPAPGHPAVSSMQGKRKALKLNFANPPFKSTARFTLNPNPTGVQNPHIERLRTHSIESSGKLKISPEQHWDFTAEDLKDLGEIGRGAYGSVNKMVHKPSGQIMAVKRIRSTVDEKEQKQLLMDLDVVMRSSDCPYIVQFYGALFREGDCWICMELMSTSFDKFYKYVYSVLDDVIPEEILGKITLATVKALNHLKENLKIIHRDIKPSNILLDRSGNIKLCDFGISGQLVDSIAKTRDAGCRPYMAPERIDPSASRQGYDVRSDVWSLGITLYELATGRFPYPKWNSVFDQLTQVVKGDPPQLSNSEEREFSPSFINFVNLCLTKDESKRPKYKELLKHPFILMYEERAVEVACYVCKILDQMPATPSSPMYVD

[18] = target: Serine/threonine-protein kinase 4 (Homo sapiens) (UniProt Q13043); conditions: Compound concentration 1000.0 nM
[19] = target: Myosin-IIIa (Homo sapiens) (UniProt Q8NEV4); conditions: Compound concentration 1000.0 nM
[20] = target: Serine/threonine-protein kinase 38 (Homo sapiens) (UniProt Q15208); conditions: Compound concentration 1000.0 nM
Sequence of Serine/threonine-protein kinase 38 (Homo sapiens) (Q15208 2-465 limits assumed): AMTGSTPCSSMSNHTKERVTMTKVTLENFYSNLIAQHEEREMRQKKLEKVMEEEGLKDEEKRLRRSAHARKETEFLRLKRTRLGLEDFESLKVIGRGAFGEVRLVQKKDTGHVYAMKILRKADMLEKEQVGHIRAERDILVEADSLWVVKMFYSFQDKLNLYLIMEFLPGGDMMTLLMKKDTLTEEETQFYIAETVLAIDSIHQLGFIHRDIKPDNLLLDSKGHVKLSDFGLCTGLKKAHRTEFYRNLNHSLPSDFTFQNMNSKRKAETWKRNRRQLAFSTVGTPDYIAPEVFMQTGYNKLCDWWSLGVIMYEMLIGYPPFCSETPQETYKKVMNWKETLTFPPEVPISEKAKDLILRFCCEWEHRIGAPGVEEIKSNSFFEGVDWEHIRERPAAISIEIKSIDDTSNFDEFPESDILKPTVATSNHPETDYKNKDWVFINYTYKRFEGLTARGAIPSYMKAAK

[21] = target: Serine/threonine-protein kinase PLK4 (Homo sapiens) (UniProt O00444); conditions: Compound concentration 1000.0 nM
Sequence of Serine/threonine-protein kinase PLK4 (Homo sapiens) (O00444 whole entry): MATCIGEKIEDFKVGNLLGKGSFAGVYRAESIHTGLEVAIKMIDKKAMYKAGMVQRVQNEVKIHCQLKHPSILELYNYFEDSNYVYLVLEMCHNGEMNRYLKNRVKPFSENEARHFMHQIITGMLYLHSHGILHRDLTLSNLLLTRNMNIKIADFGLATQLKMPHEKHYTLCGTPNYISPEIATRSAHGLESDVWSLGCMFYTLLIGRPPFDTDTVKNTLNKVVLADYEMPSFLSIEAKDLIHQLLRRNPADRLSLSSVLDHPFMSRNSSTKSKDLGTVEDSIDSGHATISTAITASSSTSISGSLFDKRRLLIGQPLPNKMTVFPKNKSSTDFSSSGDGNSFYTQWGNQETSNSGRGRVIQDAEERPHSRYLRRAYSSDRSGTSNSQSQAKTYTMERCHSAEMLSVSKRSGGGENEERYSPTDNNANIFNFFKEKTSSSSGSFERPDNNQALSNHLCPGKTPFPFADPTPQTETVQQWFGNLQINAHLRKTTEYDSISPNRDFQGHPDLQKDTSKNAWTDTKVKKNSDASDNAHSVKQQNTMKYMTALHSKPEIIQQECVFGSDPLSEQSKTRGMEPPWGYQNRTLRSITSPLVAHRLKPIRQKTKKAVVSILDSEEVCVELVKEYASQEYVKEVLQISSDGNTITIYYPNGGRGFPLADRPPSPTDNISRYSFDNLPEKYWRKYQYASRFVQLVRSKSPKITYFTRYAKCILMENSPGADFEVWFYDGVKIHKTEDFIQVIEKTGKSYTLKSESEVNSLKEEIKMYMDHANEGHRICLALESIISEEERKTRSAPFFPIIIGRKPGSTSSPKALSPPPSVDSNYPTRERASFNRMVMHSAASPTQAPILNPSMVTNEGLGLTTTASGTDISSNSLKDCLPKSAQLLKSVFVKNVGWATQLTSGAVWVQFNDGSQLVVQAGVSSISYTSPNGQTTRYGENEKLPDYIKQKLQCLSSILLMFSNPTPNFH

[22] = target: Interferon-induced, double-stranded RNA-activated protein kinase (Homo sapiens) (UniProt P19525); conditions: Compound concentration 1000.0 nM
[23] = target: Receptor-interacting serine/threonine-protein kinase 2 (Homo sapiens) (UniProt O43353); conditions: Compound concentration 1000.0 nM
[24] = target: Activated CDC42 kinase 1 (Homo sapiens) (UniProt Q07912); conditions: Compound concentration 1000.0 nM
[25] = target: High affinity nerve growth factor receptor (Homo sapiens) (UniProt P04629); conditions: Compound concentration 1000.0 nM
[26] = target: Tyrosine-protein kinase TXK (Homo sapiens) (UniProt P42681); conditions: Compound concentration 1000.0 nM
[27] = target: Serine/threonine-protein kinase WNK2 (Homo sapiens) (UniProt Q9Y3S1); conditions: Compound concentration 1000.0 nM
[28] = target: Mitogen-activated protein kinase kinase kinase 20 (Homo sapiens) (UniProt Q9NYL2); conditions: Compound concentration 1000.0 nM
[29] = target: Tyrosine-protein kinase ZAP-70 (Homo sapiens) (UniProt P43403); conditions: Compound concentration 1000.0 nM
[30] = target: 5-hydroxytryptamine receptor 1E (Homo sapiens) (UniProt P28566); conditions: Compound concentration 10.0 uM
[31] = target: T1, 5-hydroxytryptamine receptor 2C (Homo sapiens) (UniProt P28335); conditions: Compound concentration 10.0 uM
T1 sequence (whole entry): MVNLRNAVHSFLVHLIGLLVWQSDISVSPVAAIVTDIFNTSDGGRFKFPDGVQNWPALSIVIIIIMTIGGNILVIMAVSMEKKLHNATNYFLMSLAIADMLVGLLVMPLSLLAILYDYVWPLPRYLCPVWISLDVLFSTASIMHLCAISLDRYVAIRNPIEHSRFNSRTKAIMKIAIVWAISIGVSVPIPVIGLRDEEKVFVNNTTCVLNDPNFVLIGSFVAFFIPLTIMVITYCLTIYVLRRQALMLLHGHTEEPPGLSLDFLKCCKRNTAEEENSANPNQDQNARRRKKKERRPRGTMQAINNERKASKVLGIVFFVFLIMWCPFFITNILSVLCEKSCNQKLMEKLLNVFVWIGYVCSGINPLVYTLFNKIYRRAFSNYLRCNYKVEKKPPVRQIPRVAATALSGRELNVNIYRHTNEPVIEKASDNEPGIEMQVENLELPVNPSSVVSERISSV

[32] = target: T2, Muscarinic acetylcholine receptor M4 (Homo sapiens) (UniProt P08173); conditions: Compound concentration 10.0 uM
T2 sequence (whole entry): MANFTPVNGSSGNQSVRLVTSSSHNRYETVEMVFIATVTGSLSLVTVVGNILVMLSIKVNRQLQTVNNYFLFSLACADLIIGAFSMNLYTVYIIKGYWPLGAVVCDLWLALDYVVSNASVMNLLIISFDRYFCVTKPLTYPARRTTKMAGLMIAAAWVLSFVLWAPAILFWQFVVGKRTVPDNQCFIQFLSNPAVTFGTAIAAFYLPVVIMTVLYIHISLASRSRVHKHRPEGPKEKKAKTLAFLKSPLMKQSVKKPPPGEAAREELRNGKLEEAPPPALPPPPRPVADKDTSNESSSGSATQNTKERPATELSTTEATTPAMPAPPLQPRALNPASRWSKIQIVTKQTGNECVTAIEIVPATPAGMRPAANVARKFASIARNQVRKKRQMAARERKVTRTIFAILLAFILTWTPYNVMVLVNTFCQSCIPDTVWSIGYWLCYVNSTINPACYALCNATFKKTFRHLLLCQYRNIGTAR

Sequence of B2 bradykinin receptor (Homo sapiens) (P30411 whole entry): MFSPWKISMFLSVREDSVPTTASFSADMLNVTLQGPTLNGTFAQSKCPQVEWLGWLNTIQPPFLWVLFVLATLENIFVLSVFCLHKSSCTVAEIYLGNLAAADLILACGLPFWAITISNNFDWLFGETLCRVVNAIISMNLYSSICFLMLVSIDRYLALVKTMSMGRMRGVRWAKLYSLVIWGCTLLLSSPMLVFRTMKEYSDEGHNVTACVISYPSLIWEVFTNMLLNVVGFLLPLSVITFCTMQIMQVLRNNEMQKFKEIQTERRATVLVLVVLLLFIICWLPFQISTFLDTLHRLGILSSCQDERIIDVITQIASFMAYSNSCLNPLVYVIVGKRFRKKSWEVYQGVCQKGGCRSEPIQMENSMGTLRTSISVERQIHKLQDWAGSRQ

Compound: CO[C@H]1CC[C@H](CNc2ccc(S(=O)(=O)NC(=O)c3ccc(N4CCN(CC5=C(c6ccc(Cl)cc6)CC(C)(C)CC5)CC4)cc3Oc3cnc4[nH]ccc4c3)cc2[N+](=O)[O-])CC1 [A-1211212]
- % Inhibition of Control Specific Binding (Mean n=2) [1]: -15.7%
- % Inhibition of Control Specific Binding (Mean n=2) [2]: 1.6%
- % Inhibition of Control Specific Binding (Mean n=2) [3]: -12.2%
- % Inhibition of Control Specific Binding (Mean n=2) [4]: 5.9%
- % Inhibition of Control Specific Binding (Mean n=2) [5]: 4.2%
- residual activity [6]: 100%
- residual activity [7]: 93%
- residual activity [8]: 89%
- residual activity [9]: 84%
- residual activity [10]: 71%
- residual activity [11]: 100%
- residual activity [12]: 95%
- residual activity [13]: 100%
- residual activity [14]: 100%
- residual activity [15]: 89%
- residual activity [16]: 83%
- residual activity [17]: 98%
- residual activity [18]: 84%
- residual activity [19]: 82%
- residual activity [20]: 98%
- residual activity [21]: 100%
- residual activity [22]: 90%
- residual activity [23]: 85%
- residual activity [24]: 96%
- residual activity [25]: 100%
- residual activity [26]: 100%
- residual activity [27]: 76%
- residual activity [28]: 100%
- residual activity [29]: 97%
- inhibition [30]: -1.62%
- inhibition [31]: -4.69%
- inhibition [32]: -0.31%

Compound: O=C(NS(=O)(=O)c1ccc(NCC2CCOCC2)c([N+](=O)[O-])c1)c1ccc(N2CCN(Cc3ccc(C(F)(F)F)cc3-c3ccc(Cl)cc3)CC2)cc1Oc1cnc2[nH]ccc2c1 [A-1210227]
- % Inhibition of Control Specific Binding (Mean n=2) [1]: -2.1%
- % Inhibition of Control Specific Binding (Mean n=2) [2]: -44.1%
- % Inhibition of Control Specific Binding (Mean n=2) [3]: -0.7%
- % Inhibition of Control Specific Binding (Mean n=2) [4]: 3.1%
- % Inhibition of Control Specific Binding (Mean n=2) [5]: 3.5%
- residual activity [6]: 82%
- residual activity [7]: 83%
- residual activity [8]: 83%
- residual activity [9]: 93%
- residual activity [10]: 80%
- residual activity [11]: 100%
- residual activity [12]: 100%
- residual activity [13]: 100%
- residual activity [14]: 100%
- residual activity [15]: 90%
- residual activity [16]: 85%
- residual activity [17]: 100%
- residual activity [18]: 94%
- residual activity [19]: 85%
- residual activity [20]: 90%
- residual activity [21]: 98%
- residual activity [22]: 94%
- residual activity [23]: 100%
- residual activity [24]: 100%
- residual activity [25]: 100%
- residual activity [26]: 94%
- residual activity [27]: 75%
- residual activity [28]: 100%
- residual activity [29]: 82%
- inhibition [30]: 10.4%
- inhibition [31]: -0.17%
- inhibition [32]: -5.79%
